Laboratory results: patent US9617276B2, “Compounds and methods for treating AIDS and HIV infections” (priority 2009, dated 2017)
Read-outs that look alike come from different tables or passages of the source.

Columns and labels:
HIV-1 = experiment: antiviral assay (IC50); type: cell-based; settings: read-out: IC50
Method: (§1) The inhibitory potencies of acyclic and cyclic inhibitors were measured by the assay protocol of Toth and Marshall (Toth, M. V.; Marshall, G. R. A simple, continuous fluorometric assay for HIV protease. Int. J. Pep. Protien Res. 1990, 36, 544-55).

HIV-1 protease = target: T1, HIV-1 protease (Human immunodeficiency virus type 1 group M subtype B, UniProt P04585); experiment: HIV protease enzyme inhibition, fluorometric assay of Toth and Marshall; type: biochemical; settings: read-out: Ki
T1 construct: A simple, continuous fluorometric assay for HIV protease
Method: as §1

| SMILES | IC50 (HIV-1; Table 4) [nM] | Ki (HIV-1 protease; Table 4) [nM] | IC50 (HIV-1) [nM] | Ki (HIV-1 protease) [nM] | IC50 (HIV-1; Human immunodeficiency virus 1, Table 4) [nM] |
| --- | --- | --- | --- | --- | --- |
| COc1ccc2c(c1)OCCCCC=CCC(C)(C)CN(CC(O)C(Cc1ccccc1)NC(=O)OC1COC3OCCC13)S2(=O)=O (centres unmarked) [Compound 21a] | > 1000 | < 10 | – | – | – |
| COc1ccc2c(c1)OCCCCC=CCC(C)CN(CC(O)C(Cc1ccccc1)NC(=O)OC1COC3OCCC13)S2(=O)=O (centres unmarked) [Compound 21b] | < 10 | < 10 | 6.3 | 2.8 | – |
| COc1ccc2c(c1)OCCCCC=CCC(C)CN(CC(O)C(Cc1ccccc1)NC(=O)OC1COC3OCCC13)S2(=O)=O (centres unmarked) [Compound 21c] | < 100 | < 1 | – | – | – |
| COc1ccc2c(c1)OCCCCCCCC(C)(C)CN(CC(O)C(Cc1ccccc1)NC(=O)OC1COC3OCCC13)S2(=O)=O (centres unmarked) [Compound 22a] | – | < 10 | – | – | > 1000 |
| COc1ccc2c(c1)OCCCCCCCC(C)CN(CC(O)C(Cc1ccccc1)NC(=O)OC1COC3OCCC13)S2(=O)=O (centres unmarked) [Compound 22b] | < 1000 | < 1 | – | – | – |
| COc1ccc2c(c1)OCCCCCCCC(C)CN(CC(O)C(Cc1ccccc1)NC(=O)OC1COC3OCCC13)S2(=O)=O (centres unmarked) [Compound 22c] | < 100 | < 1 | – | – | – |
